Source: US8609654B1, “Compounds for enzyme inhibition” (Onyx Therapeutics, Inc., priority 2006, dated 2013)

Experiments:
[1] = tested on: chymotryptic-like activity of isolated 20S constitutive proteasome vs immunoproteasome; test: Enzyme kinetic assay with isolated 20S proteasome preps, EC50 ratio of CT-L activity (20S ratio); format: biochemical; conditions: constitutive proteasome to immunoproteasome, >1 = prefers immunoproteasome
Description: Enzyme kinetic assays such as those disclosed in U.S. application Ser. No. 09/569,748, Example 2 and Stein et al., Biochem. (1996), 35, 3899-3908 use isolated 20S proteasome preps with greater than 90% constitutive proteasome subunits or immunoproteasome subunits. The inhibitory preference of the molecule is then based on the EC50 ratio of the chymotryptic-like activity of the constitutive proteasome to that of the immunoproteasome (20S ratio).

[2] = target: T1, 26S proteasome CT-L activity in lysate of HT29 (constitutive) vs Sultan/Thp1 (immunoproteasome) cells (Homo sapiens, UniProt P28062+P28074); test: CT-L EC50 with 26S proteasome in cell lysate (Lysate ratio); format: biochemical; conditions: HT29 lysate to Sultan/Thp1 lysate, >1 = prefers immunoproteasome
T1 construct: using 26S proteasome in the context of a cell lysate; endogenous in cells; host or cells: HT29 lysate (constitutive); Sultan or THP1 lysate (immunoproteasome)
T1 sequence (P28074 60-263): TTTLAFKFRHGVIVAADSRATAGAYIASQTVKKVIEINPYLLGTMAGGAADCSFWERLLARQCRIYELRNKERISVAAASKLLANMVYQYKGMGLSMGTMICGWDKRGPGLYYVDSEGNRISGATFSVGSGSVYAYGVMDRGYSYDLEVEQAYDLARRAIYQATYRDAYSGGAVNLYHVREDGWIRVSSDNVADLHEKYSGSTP
T1 sequence (P28062 73-276): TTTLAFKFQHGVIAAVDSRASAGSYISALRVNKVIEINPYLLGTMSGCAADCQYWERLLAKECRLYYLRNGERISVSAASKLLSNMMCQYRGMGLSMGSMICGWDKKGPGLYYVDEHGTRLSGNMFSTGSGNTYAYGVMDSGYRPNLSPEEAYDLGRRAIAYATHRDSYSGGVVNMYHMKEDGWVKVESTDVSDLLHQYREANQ
Experimental: Alternatively, the CT-L EC50 of a compound can be determined using 26S proteasome in the context of a cell lysate. Compound is added to lysate generated from cells that either predominantly express constitutive proteasome (e.g., HT29) or immunoproteasome (e.g., THP1). Again, the inhibitory preference is then based on the EC50 ratio (Lysate ratio).

[3] = target: T2, 20S proteasome subunit β5 vs immunoproteasome subunit LMP7 in RPMI-8226 cells (Homo sapiens, UniProt P28062+P28074); test: ELISA-based active site assay in RPMI-8226 cells (ELISA ratio); format: cell-based; conditions: EC50 ratio with β5 antibody to LMP7 antibody, RPMI-8226 cells; >1 = prefers immunoproteasome
T2 construct: Cells expressing approximately equivalent amounts of immuno- and constitutive proteasome (e.g., RPMI-8226) are treated with test compound; endogenous in cells; host or cells: RPMI-8226 multiple myeloma cells
T2 sequence (P28074 60-263): T1 sequence (P28074 60-263)
T2 sequence (P28062 73-276): T1 sequence (P28062 73-276)
Experimental: Lastly, a more cell-based approach can be utilized. Cells expressing approximately equivalent amounts of immuno- and constitutive proteasome (e.g., RPMI-8226) are treated with test compound, followed by the method for determining the activity of a proteasome inhibitor as described in application Ser. No. 11/254,541. The ratio of the EC50 generated in the ELISA-based assay using β5 antibody and LMP7 antibodies (ELISA ratio) provides the basis for determining the inhibitory preference of the test compound. […] In all three assays, a ratio of less than one denotes the molecule inhibits the CT-L activity of the constitutive proteasome better than that of the immunoproteasome. Ratios greater than one signifies the molecule inhibits chymotrypsin-like activity of the immunoproteasome better than that of the constitutive proteasome.
A suitable ELISA assay may be found in U.S. patent application Ser. No. 11/254,541, incorporated herein in its entirety. Briefly, RPMI-8226 cells were treated with 0.1 nM to 1 μM of proteasome Inhibitor B. The samples were then washed with phosphate-buffered saline (PBS) and lysed in hypotonic buffer (20 mM Tris pH 8, 5 mM EDTA) (Tris-HCl and EDTA are available from Teknova, Inc., Hollister, Calif.). Cellular debris was removed by centrifugation at 14,000 rpm in a microfuge (4° C.) for 2 min. The supernatant was transferred to a fresh tube, snap frozen in liquid nitrogen and stored at −80° C. After thawing on ice, the samples (30 μl for assays run in triplicate) were treated with 500 nM of Inhibitor A for 1 hr at room temperature. Following treatment with Inhibitor A, the lysate was denatured by addition of seven volumes of 1% SDS (210 μl) (available from Bio-Rad, Hercules, Calif.) and heating at 99° C. with vigorous shaking for 5 min. The sample was allowed to cool and two volumes (60 μl) of 10% Triton X-100 (available from Bio-Rad, Hercules, Calif.) was added.
Streptavidin sepharose beads (6.5 μl/well) (available from Amersham Biosciences, Piscataway, N.J.), were washed three times with 1 ml PBS (available from Mediatech, Inc., Herndon, Va.) in a microcentrifuge tube. The beads were resuspended in ELISA wash/block buffer (PBS+0.1% Tween 20+1% bovine serum albumin; 20 μl/well) and transferred to the wells of a 96 well filter plate (BSA is available from Sigma, St. Louis, Mo.; Tween is available from Calbiochem, San Diego, Calif.). Denatured whole blood or PBMC lysates that were treated with Inhibitor 3 were added to the filter plate wells containing the streptavidin sepharose beads (each sample assayed in triplicate) and incubated for 1 hr at room temperature with shaking (MultiScreen-DV Opaque Plates with low protein binding durapore membrane; available from Millipore, Billerica, Mass.). The unbound material was removed by gentle filtration and the beads were washed six times with ELISA wash/block buffer (200 μl each).
Primary antibody to human 20S proteasome subunit (35 (rabbit polyclonal antibody; available from Biomol, Plymouth Meeting, Pa.) or human 20S immunoproteasome subunit LMP7 (rabbit polyclonal antibody; available from Affinity BioReagents, Golden, Colo.) was diluted 1:1000 in ELISA wash/block buffer, added to the beads (100 μl/well), and incubated for 1 hr at room temperature on an orbital shaker. The beads were washed six times with ELISA wash/block buffer with gentle filtration. Secondary antibody treatment (1:5000) and washing are as described for primary antibody (goat anti-rabbit antibody-HRP conjugate; available from Biosource, Camarillo, Calif.). The beads were then resuspended in 100 μl chemiluminescent detection reagent (Super Signal Pico Chemiluminescent Substrate™; available from Pierce, Rockford, Ill.) and luminescence was read on a Tecan plate reader. […]

[4] = tested on: rheumatoid arthritis induced by anti-type II collagen antibodies and LPS; test: Arthrogenic antibody mouse model of rheumatoid arthritis (anti-collagen antibodies and LPS); format: in vivo, female Balb/c mice
Experimental: The effect of Compound 14 on disease progression was assessed in 2 mouse models of rheumatoid arthritis (FIG. 2). […] Rhematoid arthritis was induced on Day 0 in female Balb/c mice by IV administration of anti-type II collagen antibodies followed 3 days later by LPS. […] Per mouse, each paw was measured for disease using a scale of 0-4 and a total clinical score was assigned for each animal (max score=16). Administration of 6 mg/kg of Compound 14 reduced disease severity by ˜50% while the 20 mg/kg dose level inhibited the disease by greater than 75%.

[5] = tested on: rheumatoid arthritis induced by immunization with bovine type II collagen in CFA; test: Mouse model of RA by immunization with bovine type II collagen; format: in vivo, female DBA/1 mice
Experimental: The effect administration of Compound 14 on disease progress was also assessed in an alternative mouse model for RA, in which disease develops 21-30 days after immunization with bovine type II collagen (Kagari et al., J Immunol 169:1459-1466, 2002). […] Again, disease progression was measured using a total clinical score of paw condition per mouse.

Structure (SMILES)	20 S ratio (const:immuno) [1]	Lysate ratio (HT29:Sultan/Thp1) [2]	Elisa ratio (beta5:LMP7) [3]	reduction of disease severity ([4]; 6 mg/kg IV 3 times/week for 2 weeks from Day 4)	inhibition of the disease ([4]; 20 mg/kg IV 3 times/week for 2 weeks from Day 4)	effect on disease progression ([4]; IV 3 times/week for 2 weeks from Day 4, total clinical score (max 16))	effect on disease progression ([5]; 6 or 20 mg/kg beginning after first signs of disease, total clinical score)	dose dependence of reduction of disease severity ([5]; 6 vs 20 mg/kg)
CC(NC(=O)OCc1ccccc1)C(=O)N[C@@H](Cc1c[nH]c2ccccc12)C(=O)N[C@@H](Cc1ccccc1)C(=O)C1(C)CO1 (some centres unmarked)	>1.0	>2.0	>5.0	–	–	–	–	–
COc1ccc(C[C@H](NC(=O)C(C)NC(=O)OCc2ccccc2)C(=O)N[C@@H](Cc2ccc(O)cc2)C(=O)C2(C)CO2)cc1 (some centres unmarked) [drawing 65]	>5.0	>2.0	>5.0	–	–	–	–	–
CC(NC(=O)OCc1ccccc1)C(=O)N[C@@H](Cc1ccc(C(F)(F)F)cc1)C(=O)N[C@@H](Cc1ccccc1)C(=O)C1(C)CO1 (some centres unmarked)	>5.0	>2.0	>1.0	–	–	–	–	–
CC1(C(=O)[C@H](Cc2ccccc2)NC(=O)[C@H](Cc2ccccc2)NC(=O)[C@H](CCC(N)=O)NC(=O)OCc2ccccc2)CO1 (some centres unmarked)	>2.0	>3.0	>5.0	–	–	–	–	–
COc1ccc(C[C@H](NC(=O)[C@H](C)NC(=O)CN2CCOCC2)C(=O)N[C@@H](Cc2ccccc2)C(=O)[C@@]2(C)CO2)cc1 [Compound 14]	–	–	–	~50%	greater than 75%	inhibited disease progression in a dose dependent manner	inhibited disease progression as compared to vehicle control	enhanced reduction of disease severity
